# Tested on: 817829-284-R-J1-PDC complex spheroid viability
# Test: Anticancer human tumor 817829-284-R-J1-PDC patient-derived colon adenocarcinoma cell line growth inhibition [POLQ]
# Conditions: for IC50: curve of first compound; for viability, T/C: stronger effect = lower value
# In short: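 Growth inhibition in 3D: complex spheroids (tumor PDC, HUVEC, MSC) treated with POLQ inhibitor combinations; where Cmax unknown, highest tested concentration 10 microM, except SN-38 at 1 microM.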
# 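Further: spheroids exposed to compounds for 7 days.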
# 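Wherever viability, T/C is given: 100% = DMSO vehicle-treated spheroids.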
smiles,measurement,setting,value
CC(=O)O[C@H]1C(=O)[C@@]2(C)[C@H]([C@H](OC(=O)c3ccccc3)[C@]3(O)C[C@H](OC(=O)[C@H](O)[C@@H](NC(=O)c4ccccc4)c4ccccc4)C(C)=C1C3(C)C)[C@]1(OC(C)=O)CO[C@@H]1C[C@@H]2O + Nc1ccc(C#CCN(C(=O)Cc2ncc(C(F)(F)F)cc2C(F)(F)F)c2ccc(F)cc2)nn1,IC50,second compound 0.0316 µM,< 9.49 nM
same,IC50,second compound 0.1 µM,< 9.49 nM
same,IC50,second compound 0.316 µM,< 9.49 nM
same,IC50,second compound 1 µM,< 9.49 nM
same,IC50,second compound 3.16 µM,< 9.49 nM
same,IC50,second compound 10 µM,< 9.49 nM
same,"viability, T/C","second compound 0.0316 µM, first compound 0.00949 µM",5.03%
same,"viability, T/C","second compound 0.0316 µM, first compound 0.03 µM",3.67%
same,"viability, T/C","second compound 0.0316 µM, first compound 0.0949 µM",3.6%
same,"viability, T/C","second compound 0.0316 µM, first compound 0.3 µM",4.54%
same,"viability, T/C","second compound 0.0316 µM, first compound 0.949 µM",3.38%
same,"viability, T/C","second compound 0.0316 µM, first compound 3 µM",3.49%
same,"viability, T/C","second compound 0.1 µM, first compound 0.00949 µM",4.54%
same,"viability, T/C","second compound 0.1 µM, first compound 0.03 µM",3.69%
same,"viability, T/C","second compound 0.1 µM, first compound 0.0949 µM",3.4%
same,"viability, T/C","second compound 0.1 µM, first compound 0.3 µM",3.32%
same,"viability, T/C","second compound 0.1 µM, first compound 0.949 µM",3.65%
same,"viability, T/C","second compound 0.1 µM, first compound 3 µM",3.64%
same,"viability, T/C","second compound 0.316 µM, first compound 0.00949 µM",4.71%
same,"viability, T/C","second compound 0.316 µM, first compound 0.03 µM",3.72%
same,"viability, T/C","second compound 0.316 µM, first compound 0.0949 µM",3.26%
same,"viability, T/C","second compound 0.316 µM, first compound 0.3 µM",3.47%
same,"viability, T/C","second compound 0.316 µM, first compound 0.949 µM",3.51%
same,"viability, T/C","second compound 0.316 µM, first compound 3 µM",3.52%
same,"viability, T/C","second compound 1 µM, first compound 0.00949 µM",4.2%
same,"viability, T/C","second compound 1 µM, first compound 0.03 µM",4.2%
same,"viability, T/C","second compound 1 µM, first compound 0.0949 µM",3.64%
same,"viability, T/C","second compound 1 µM, first compound 0.3 µM",3.16%
same,"viability, T/C","second compound 1 µM, first compound 0.949 µM",3.49%
same,"viability, T/C","second compound 1 µM, first compound 3 µM",3.91%
same,"viability, T/C","second compound 3.16 µM, first compound 0.00949 µM",3.91%
same,"viability, T/C","second compound 3.16 µM, first compound 0.03 µM",3.81%
same,"viability, T/C","second compound 3.16 µM, first compound 0.0949 µM",3.99%
same,"viability, T/C","second compound 3.16 µM, first compound 0.3 µM",3.89%
same,"viability, T/C","second compound 3.16 µM, first compound 0.949 µM",3.75%
same,"viability, T/C","second compound 3.16 µM, first compound 3 µM",3.61%
same,"viability, T/C","second compound 10 µM, first compound 0.00949 µM",4.68%
same,"viability, T/C","second compound 10 µM, first compound 0.03 µM",3.73%
same,"viability, T/C","second compound 10 µM, first compound 0.0949 µM",3.81%
same,"viability, T/C","second compound 10 µM, first compound 0.3 µM",3.76%
same,"viability, T/C","second compound 10 µM, first compound 0.949 µM",3.38%
same,"viability, T/C","second compound 10 µM, first compound 3 µM",3.83%
COc1cc(C2c3cc4c(cc3C(OC3OC5COC(C)OC5C(O)C3O)C3COC(=O)C23)OCO4)cc(OC)c1O (centres undefined) + Nc1ccc(C#CCN(C(=O)Cc2ncc(C(F)(F)F)cc2C(F)(F)F)c2ccc(F)cc2)nn1,IC50,second compound 0.0316 µM,68.1 nM
same,IC50,second compound 0.1 µM,99.6 nM
same,IC50,second compound 0.316 µM,76.2 nM
same,IC50,second compound 1 µM,129 nM
same,IC50,second compound 3.16 µM,83.6 nM
same,IC50,second compound 10 µM,73.7 nM
same,"viability, T/C","second compound 0.0316 µM, first compound 0.0316 µM",67.2%
same,"viability, T/C","second compound 0.0316 µM, first compound 0.1 µM",43.9%
same,"viability, T/C","second compound 0.0316 µM, first compound 0.316 µM",15.4%
same,"viability, T/C","second compound 0.0316 µM, first compound 1 µM",24.5%
same,"viability, T/C","second compound 0.0316 µM, first compound 3.16 µM",13.7%
same,"viability, T/C","second compound 0.0316 µM, first compound 10 µM",6.78%
same,"viability, T/C","second compound 0.1 µM, first compound 0.0316 µM",100%
same,"viability, T/C","second compound 0.1 µM, first compound 0.1 µM",50.4%
same,"viability, T/C","second compound 0.1 µM, first compound 0.316 µM",18%
same,"viability, T/C","second compound 0.1 µM, first compound 1 µM",20.8%
same,"viability, T/C","second compound 0.1 µM, first compound 3.16 µM",12.4%
same,"viability, T/C","second compound 0.1 µM, first compound 10 µM",7.13%
same,"viability, T/C","second compound 0.316 µM, first compound 0.0316 µM",88%
same,"viability, T/C","second compound 0.316 µM, first compound 0.1 µM",38.7%
same,"viability, T/C","second compound 0.316 µM, first compound 0.316 µM",15.3%
same,"viability, T/C","second compound 0.316 µM, first compound 1 µM",24.4%
same,"viability, T/C","second compound 0.316 µM, first compound 3.16 µM",13.6%
same,"viability, T/C","second compound 0.316 µM, first compound 10 µM",4.94%
same,"viability, T/C","second compound 1 µM, first compound 0.0316 µM",79.9%
same,"viability, T/C","second compound 1 µM, first compound 0.1 µM",59.5%
same,"viability, T/C","second compound 1 µM, first compound 0.316 µM",16.7%
same,"viability, T/C","second compound 1 µM, first compound 1 µM",19.8%
same,"viability, T/C","second compound 1 µM, first compound 3.16 µM",11.6%
same,"viability, T/C","second compound 1 µM, first compound 10 µM",5.6%
same,"viability, T/C","second compound 3.16 µM, first compound 0.0316 µM",74.6%
same,"viability, T/C","second compound 3.16 µM, first compound 0.1 µM",47.3%
same,"viability, T/C","second compound 3.16 µM, first compound 0.316 µM",17.4%
same,"viability, T/C","second compound 3.16 µM, first compound 1 µM",22.4%
same,"viability, T/C","second compound 3.16 µM, first compound 3.16 µM",12%
same,"viability, T/C","second compound 3.16 µM, first compound 10 µM",6.2%
same,"viability, T/C","second compound 10 µM, first compound 0.0316 µM",71.9%
same,"viability, T/C","second compound 10 µM, first compound 0.1 µM",42.7%
same,"viability, T/C","second compound 10 µM, first compound 0.316 µM",18.8%
same,"viability, T/C","second compound 10 µM, first compound 1 µM",13.1%
same,"viability, T/C","second compound 10 µM, first compound 3.16 µM",10.7%
same,"viability, T/C","second compound 10 µM, first compound 10 µM",5.77%

# From PubChem BioAssay AID1963839 (Molecular Pharmacology Branch, DTP, NCI, 2024)
